Test results from patent US20230399312A1, “SUBSTITUTED PYRIMIDINES AND METHODS OF USE” (THERAVANCE BIOPHARMA R&D IP, LLC, priority 2020, published 2023).

Assays:
[1] = system: TGF-β-stimulated SMAD3 phosphorylation in BEAS-2B cells; assay: Cellular ALK5 potency assay, inhibition of TGF-β stimulated pSMAD3 formation in BEAS-2B cells; format: cell-based; conditions: Homo sapiens, pSMAD3, TGF-β 10 ng/mL, read-out: BEAS2B pIC50 (converted)
In short: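 Human lung epithelial BEAS-2B cells were pre-treated with compound for 1 h at 37 °C, then stimulated with TGF-β (final 10 ng/mL) for 30 min before lysis. pSMAD3 was quantified by AlphaLISA and pIC50 derived from dose-dependent signal change versus TGF-β-stimulated untreated cells.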

[2] = target: T1, recombinant human ALK5 (TGF-βR1) protein (Homo sapiens, UniProt P36897); assay: Biochemical ALK5 (TGF-βR1) assay to measure pKi (LANCE Ultra ULight kinase assay); conditions: apparent pKi, converted from pIC50 by Cheng-Prusoff
T1 construct: purchased Life Technologies PR9075A
T1 sequence (P36897 34-503): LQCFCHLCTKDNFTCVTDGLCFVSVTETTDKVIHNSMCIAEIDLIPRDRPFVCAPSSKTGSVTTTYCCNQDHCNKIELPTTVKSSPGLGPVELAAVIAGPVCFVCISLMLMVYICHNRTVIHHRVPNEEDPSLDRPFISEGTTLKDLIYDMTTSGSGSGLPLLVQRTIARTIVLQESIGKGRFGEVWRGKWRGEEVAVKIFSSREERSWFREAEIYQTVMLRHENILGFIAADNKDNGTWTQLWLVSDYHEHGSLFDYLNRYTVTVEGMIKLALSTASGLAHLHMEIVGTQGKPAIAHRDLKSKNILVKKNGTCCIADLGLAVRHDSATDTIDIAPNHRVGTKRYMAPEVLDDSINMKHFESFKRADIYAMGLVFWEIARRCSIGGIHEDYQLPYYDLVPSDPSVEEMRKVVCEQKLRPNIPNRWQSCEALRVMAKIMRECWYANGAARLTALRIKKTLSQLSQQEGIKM
In short: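 Dose-response series of each compound were preincubated with the kinase for 60 minutes at room temperature. Phosphorylation proceeded for 60 minutes at 37 °C after ATP addition, was quenched with EDTA, and was detected with a europium anti-phospho-Thr1342 antibody by TR-FRET; pKi was calculated from pIC50.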

SMILES	IC50 [1] [nM]	Ki [2] [nM]
Cc1cccc(-c2nccc(Nc3ccnc(Nc4cnn(CCC5CCNCC5)c4)n3)n2)n1 [Compound 390, N4-[2-(6-methyl-2-pyridyl)pyrimidin-4-yl]-N2-[1-[2-(4-piperidyl)ethyl]pyrazol-4-yl]pyrimidine-2,4-diamine]	200 to 1260	0.0398 to 0.316
Cc1cccc(-c2nccc(Nc3ccnc(Nc4nc(CN5C[C@@H](C)N[C@@H](C)C5)cs4)n3)n2)n1 [Compound 391, N4-[2-(6-methyl-2-pyridyl)pyrimidin-4-yl]-N2-[4-[[rac-(3R,5S)-3,5-dimethylpiperazin-1-yl]methyl]thiazol-2-yl]pyrimidine-2,4-diamine]	25.1 to 158	0.398 to 3.16
Cc1cccc(-c2nccc(Nc3ccnc(Nc4ccc(CN5CC(OCCO)C5)cc4)n3)n2)n1 [Compound 392, 2-[1-[[4-[[4-[[2-(6-methyl-2-pyridyl)pyrimidin-4-yl]amino]pyrimidin-2-yl]amino]phenyl]methyl]azetidin-3-yl]oxyethanol]	25.1 to 158	0.0398 to 0.316
Cc1cccc(-c2nccc(Nc3ccnc(Nc4ccc(N5CCC(N(C)CC(C)C)CC5)cc4)n3)n2)n1 [Compound 393, N2-[4-[4-[isobutyl(methyl)amino]-1-piperidyl]phenyl]-N4-[2-(6-methyl-2-pyridyl)pyrimidin-4-yl]pyrimidine-2,4-diamine]	25.1 to 158	0.0398 to 0.316
Cc1cccc(-c2nccc(Nc3ccnc(Nc4ccc(N5CCC(N(C)C)CC5)cc4)n3)n2)n1 [Compound 394, N2-[4-[4-(dimethylamino)-1-piperidyl]phenyl]-N4-[2-(6-methyl-2-pyridyl)pyrimidin-4-yl]pyrimidine-2,4-diamine]	200 to 1260	0.0398 to 0.316
Cc1cccc(-c2nccc(Nc3ccnc(Nc4ccc(CN5CC6CCC(C5)O6)cc4)n3)n2)n1 [Compound 395, N4-[2-(6-methyl-2-pyridyl)pyrimidin-4-yl]-N2-[4-(8-oxa-3-azabicyclo[3.2.1]octan-3-ylmethyl)phenyl]pyrimidine-2,4-diamine]	25.1 to 158	0.0398 to 0.316
Cc1cccc(-c2nccc(Nc3ccnc(Nc4cccc(C(=O)N5CCN(C)CC5)c4)n3)n2)n1 [Compound 396, (4-methylpiperazin-1-yl)-[3-[[4-[[2-(6-methyl-2-pyridyl)pyrimidin-4-yl]amino]pyrimidin-2-yl]amino]phenyl]methanone]	25.1 to 158	0.398 to 3.16
Cc1cccc(-c2nccc(Nc3ccnc(Nc4ccc(N5CCC(N6CCOCC6)CC5)cc4)n3)n2)n1 [Compound 397, N4-[2-(6-methyl-2-pyridyl)pyrimidin-4-yl]-N2-[4-(4-morpholino-1-piperidyl)phenyl]pyrimidine-2,4-diamine]	25.1 to 158	0.0398 to 0.316
Fc1ccc(Cl)cc1-c1nccc(Nc2ccnc(Nc3ccc(N4CCNCC4)cc3)n2)n1 [Compound 398, N4-[2-(5-chloro-2-fluoro-phenyl)pyrimidin-4-yl]-N2-(4-piperazin-1-ylphenyl)pyrimidine-2,4-diamine]	25.1 to 158	0.0398 to 0.316
Fc1ccccc1-c1nccc(Nc2ccnc(Nc3ccc(N4CCOCC4)cc3)n2)n1 [Compound 399, N4-[2-(2-fluorophenyl)pyrimidin-4-yl]-N2-(4-morpholinophenyl)pyrimidine-2,4-diamine]	25.1 to 158	3.98 to 31.6
Cc1cccc(-c2nccc(Nc3ccnc(Nc4ccc(CN5CCC[C@@H](C(=O)OCC6CNC6)C5)cc4)n3)n2)n1 [Compound 400, azetidin-3-ylmethyl (R)-1-(4-((4-((2-(6-methylpyridin-2-yl)pyrimidin-4-yl)amino)pyrimidin-2-yl)amino)benzyl)piperidine-3-carboxylate]	25.1 to 158	0.0398 to 0.316
COCCc1ccc(Nc2nccc(Nc3ccnc(-c4cccc(C)n4)n3)n2)cc1 [Compound 401, N2-[4-(2-methoxyethyl)phenyl]-N4-[2-(6-methyl-2-pyridyl)pyrimidin-4-yl]pyrimidine-2,4-diamine]	25.1 to 158	0.398 to 3.16
Cc1cccc(-c2nccc(Nc3ccnc(Nc4ccc(N5CCNCC5CC(=O)OCC5CNC5)cc4)n3)n2)n1 (stereo not shown) [Compound 402, azetidin-3-ylmethyl 2-[1-[4-[[4-[[2-(6-methyl-2-pyridyl)pyrimidin-4-yl]amino]pyrimidin-2-yl]amino]phenyl]piperazin-2-yl]acetate]	200 to 1260	0.398 to 3.16
Cc1cccc(-c2nccc(Nc3ccnc(Nc4ccc(N5CCN[C@@H](CO)C5)cc4)n3)n2)n1 [Compound 403, (R)-(4-(4-((4-((2-(6-methylpyridin-2-yl)pyrimidin-4-yl)amino)pyrimidin-2-yl)amino)phenyl)piperazin-2-yl)methanol]	25.1 to 158	0.0398 to 0.316
Cc1cccc(-c2nccc(Nc3ccnc(Nc4nc(C(=O)N[C@@H]5CCNC5)cs4)n3)n2)n1 [Compound 404, 2-[[4-[[2-(6-methyl-2-pyridyl)pyrimidin-4-yl]amino]pyrimidin-2-yl]amino]-N-[(3R)-pyrrolidin-3-yl]thiazole-4-carboxamide]	25.1 to 158	≤ 0.0316
Cc1cccc(-c2nccc(Nc3ccnc(Nc4ccc(CN5CCC(O)CC5)cc4)n3)n2)n1 [Compound 405, 1-[[4-[[4-[[2-(6-methyl-2-pyridyl)pyrimidin-4-yl]amino]pyrimidin-2-yl]amino]phenyl]methyl] piperidin-4-ol]	25.1 to 158	≤ 0.0316
Cc1cccc(-c2nccc(Nc3ccnc(Nc4ccc(C(=O)O)cc4)n3)n2)n1 [Compound 406, 4-[[4-[[2-(6-methyl-2-pyridyl)pyrimidin-4-yl]amino]pyrimidin-2-yl]amino]benzoic acid]	200 to 1260	0.398 to 3.16
Cc1cccc(-c2nccc(Nc3ccnc(Nc4ccc(S(=O)(=O)N5CCOCC5)cc4)n3)n2)n1 [Compound 407, N4-[2-(6-methyl-2-pyridyl)pyrimidin-4-yl]-N2-(4-morpholinosulfonylphenyl) pyrimidine-2,4-diamine]	25.1 to 158	0.0398 to 0.316
Fc1ccc(Cl)cc1-c1nccc(Nc2ccnc(Nc3ccc(NCCN4CCOCC4)cc3)n2)n1 [Compound 408, N4-[2-(5-chloro-2-fluoro-phenyl)pyrimidin-4-yl]-N2-[4-(2-morpholinoethylamino)phenyl] pyrimidine-2,4-diamine]	25.1 to 158	0.398 to 3.16
Cc1cccc(-c2nccc(Nc3ccnc(Nc4ccc(CN5[C@@H](C)CNC[C@@H]5C)cc4)n3)n2)n1 [Compound 409, N2-[4-[[(2S,6S)-2,6-dimethylpiperazin-1-yl]methyl]phenyl]-N4-[2-(6-methyl-2-pyridyl)pyrimidin-4-yl]pyrimidine-2,4-diamine]	25.1 to 158	0.0398 to 0.316
Cc1cccc(-c2nccc(Nc3ccnc(Nc4ccc(N5CCOCC5)cc4O)n3)n2)n1 [Compound 410, 2-[[4-[[2-(6-methyl-2-pyridyl)pyrimidin-4-yl]amino]pyrimidin-2-yl]amino]-5-morpholino-phenol]	25.1 to 158	3.98 to 31.6
COC(=O)CC1CN(Cc2cccc(Nc3nccc(Nc4ccnc(-c5cccc(C)n5)n4)n3)c2)CCN1 (stereo not shown) [Compound 411, methyl 2-[4-[[3-[[4-[[2-(6-methyl-2-pyridyl)pyrimidin-4-yl]amino]pyrimidin-2-yl]amino]phenyl]methyl]piperazin-2-yl]acetate]	25.1 to 158	0.0398 to 0.316
Fc1ccc(Cl)cc1-c1nccc(Nc2ccnc(Nc3ccc(N4CCC(N5CCCC5)CC4)cc3)n2)n1 [Compound 412, N4-[2-(5-chloro-2-fluoro-phenyl)pyrimidin-4-yl]-N2-[4-(4-pyrrolidin-1-yl-1-piperidyl)phenyl]pyrimidine-2,4-diamine]	25.1 to 158	0.0398 to 0.316
Cc1cccc(-c2nccc(Nc3ccnc(Nc4ccc(NS(=O)(=O)C5CCNC5)cc4)n3)n2)n1 (stereo not shown) [Compound 413, N-[4-[[4-[[2-(6-methyl-2-pyridyl)pyrimidin-4-yl]amino]pyrimidin-2-yl]amino]phenyl]pyrrolidine-3-sulfonamide]	200 to 1260	0.398 to 3.16
Cc1cccc(-c2nccc(Nc3ccnc(Nc4ccc(CN5CCC(C(=O)O[C@@H]6CCN(C)C6)CC5)cc4)n3)n2)n1 [Compound 414, (R)-1-methylpyrrolidin-3-yl 1-(4-((4-((2-(6-methylpyridin-2-yl)pyrimidin-4-yl)amino)pyrimidin-2-yl)amino)benzyl)piperidine-4-carboxylate]	25.1 to 158	0.0398 to 0.316
CN(C)C1CCN(c2ccc(Nc3nccc(Nc4ccnc(-c5cc(Cl)ccc5F)n4)n3)cc2)CC1 [Compound 415, N4-[2-(5-chloro-2-fluoro-phenyl)pyrimidin-4-yl]-N2-[4-[4-(dimethylamino)-1-piperidyl]phenyl]pyrimidine-2,4-diamine]	25.1 to 158	0.0398 to 0.316
